Assays:
Assay type in all cases: binding
[1] = tested on: Single Stranded Target (RNA); assay: Thermal denaturation Tm, DNA-RNA-duplex
Method: (§1) RNA and DNA duplex and DNA-triplex experiments utilizing certain desirable modified internucleoside linkages of this invention were conducted to determine those linkages' effect on the Tm values of the resulting oligonucleotides.
(§2) These experiments were carried out in a buffered solution (140 mM KCl, 5 mM Na2HPO4, and 1 mM MgCl2) at pH=6.6 (except for the 2′-5′ carbamate which was buffered at pH=7.0) according to the following protocol: 0.15 ODs of the target RNA/DNA was combined with 0.1 OD of the oligomer being assayed in a sterile eppendorf tube and dried. To this mixture was added 300 λ of Tm buffer and the solution was stirred. Tm values were then determined by a first derivative plot of absorbance versus temperature. Thermal denaturation analysis was carried out-with a heating rate of 0.25° C./min and absorbance was monitored at 260 nm.
(§3) The test oligomers that were synthesized for analysis were of the following sequence:
(§4) 5′-TC^mTC^mTC^mTC^mTC^mT^TT^TT-3′
(§5) where T=thymidine, C^m=5-methyl-2′-deoxycytidine, and T^T=a thymidine-thymidine dimer with an experimental linkage of the structure detailed in the table below. All other linkages were phosphodiester.

[2] = tested on: Target Duplex Sequence (DNA) 5′ AGAGAGAGAGAAAAA 3′; assay: Thermal denaturation Tm, DNA-Triplex
Method: as §1, §2, §3, §4, §5

[3] = tested on: Single Stranded Target (DNA); assay: Thermal denaturation Tm, DNA-duplex
Method: as §1, §2, §3, §4, §5

[4] = Tm change per substituted linkage vs control of the same group

## 5′-2′ thioformacetal: Test oligomer 5′-TCmTCmTCmTCmTCmT^TT^TT-3′, the two T^T dimers having a 5′-2′ thioformacetal linkage; other linkages phosphodiester
[1]; 140 mM KCl, 5 mM Na2HPO4, 1 mM MgCl2, pH 6.6 (2′-5′ carbamate buffered at pH 7.0)
  DNA-RNA-duplex Tm: 58.5
[1]; [4]
  DNA-RNA-duplex ° C./subst: −1.5 ° C./subst
[2]; 140 mM KCl, 5 mM Na2HPO4, 1 mM MgCl2, pH 6.6
  DNA-Triplex Tm: 39.0
[2]; pH 6.6, Tm change per substituted linkage vs control
  DNA-Triplex ° C./subst: 0 ° C./subst
[3]; 140 mM KCl, 5 mM Na2HPO4, 1 mM MgCl2, pH 6.6 (2′-5′ carbamate buffered at pH 7.0), first derivative of A260 vs temperature
  DNA-duplex Tm: 53.0
[3]; [4]
  DNA-duplex ° C./subst: +1.8 ° C./subst

Reference: patent publication US6683166B2, “Modified internucleoside linkages (ii)” (ISIS Pharmaceuticals, Inc., priority 1992, dated 2004)
